Laboratory results reported in patent US8679478B2, “Methods of lysosomal storage disease therapy” (Duke University, priority 2010, dated 2014).

What was measured:
Type in all cases: in vivo, mouse
GAA-KO mice [1] = experiment: Glycogen content in muscles, ERT plus clenbuterol or albuterol; settings: for glycogen content for quadriceps: p<0.001; for Glycogen content: ERT plus clenbuterol v. ERT alone
Description: FIG. 8A-8C depicts increased GAA uptake and increased glycogen clearance in GAA-KO mice following clenbuterol treatment and ERT. […] GAA-KO mice were administered four weekly doses of rhGAA (20 mg/kg), and treated with clenbuterol (n=6) or untreated (n=5). […] Mean+/−standard deviation are shown. Statistically significant differences indicated (*=p<0.05; **=p<0.01).
GAA-KO mice were treated with weekly rhGAA (20 mg/kg): with medium clenbuterol, […] (n=6), with low clenbuterol, 1.3 mg/ml (n=6), with albuterol 30 mg/ml (n=4), or without drug treatment (n=3). Drugs were administered in the drinking water. Mean+/−s.d. shown. Statistically significant differences indicated (*=p<0.05; **=p<0.01).
(§1) For in vivo analysis of AAV vectors, stocks were administered intravenously (via the retroorbital sinus) in 3 month-old and 15 month-old GAA-KO mice, and to 3 month-old tolerant GAA-KO and DKO mice. Clenbuterol (30 μg/ml) was administered to groups of 3 month-old vector-injected and mock-injected male GAA-KO mice in drinking water for 28 days. At the indicated time points post-injection, tissue samples were obtained and processed as described below. All animal procedures were done in accordance with Duke University Institutional Animal Care and Use Committee-approved guidelines. GAA activity and glycogen content were analyzed essentially as described (Sun et al., Mol. Ther., 2005, 11:889-898; Sun et al., Mol. Ther., 2005, 11: 57-65). Rotarod testing was performed essentially as described (Sun, B. D. et al. 2005). Western blotting of hGAA was performed essentially as described (Amalfitano et al., Proc. Natl. Acad. Sci. USA, 1999, 96: 8861-8866) using the hGAA monoclonal antibody (courtesy of Genzyme Corp., Framingham, Mass.) and the CI-MPR antibody (catalog number GTX28093; Gene Tex, Irvine, Calif.).
(§2) The efficacy from gene therapy was increased by β2 agonist stimulation from clenbuterol treatment, and this benefit might be expected to affect ERT in Pompe disease, as well. Therefore, groups of 3 month-old GAA-KO mice were treated with four weekly doses of rhGAA (20 mg/kg), with or without concurrent clenbuterol treatment.

[2] = tested on: immune tolerant GAA-KO mice; experiment: Weight of gastrocnemius, ERT plus β2 agonist; settings: clenbuterol plus ERT v. ERT alone or albuterol plus ERT
Description: GAA-KO mice were administered four weekly doses of rhGAA (20 mg/kg), and treated with medium dose clenbuterol (n=7), albuterol (n=4) or untreated (n=6 or 3). […] Mean+/−standard deviation are shown. P values indicate statistically significant differences (lines).
Two β2 agonists were evaluated in combination with ERT, clenbuterol and albuterol. The dose of clenbuterol was reduced 5-fold from the concentration used in Example 4, to 6 mg/l in drinking water, while albuterol was evaluated at the higher dose (30 mg/l in drinking water). Groups of 3 month-old immune tolerant GAA-KO mice (Raben et al., Human Mol. Genet., 2001, 10:2039-2047) were treated with four weekly doses of rhGAA (20 mg/kg body weight), with or without concurrent β2 agonist treatment.
Mice were sacrificed 7 days after the last injection. Selected tissues were collected for GAA enzyme activity and glycogen content analyses. […] GAA activity and glycogen content analyses, Rotarod testing, and Western blot detection of CI-MPR was performed essentially as described (Koeberl et al., Mol. Genet. Metab., 2011, 103:107-112. Wire hang testing was performed with a 0.5 cm mesh hardware cloth fixed to an 8 by 10 inch frame. Mice were placed on the wire mesh, which was slowly inverted 6 inches over a cage containing paper bedding. The latency, or time until the mouse fell into the cage, was recorded.

GAA-KO mice [3] = experiment: Weight gain, liver-targeted gene therapy plus clenbuterol; settings: vector plus clenbuterol v. mock treatment; p=0.06
Description: FIG. 4A-4B depicts enhanced Rotarod performance and weight gain following liver-targeted gene therapy plus clenbuterol treatment. The GAA-KO mice (5 per group) were injected with AAV-LSPhGAA (2×10^10 vector particles/mouse). Vector treated mice were treated with clenbuterol or untreated. Non-vector treated GAA-KO mice were treated with clenbuterol or untreated to serve as controls. Mice were euthanized for tissue analysis 4 weeks after vector injection. […] Mean+/−standard deviation are shown. Statistically significant differences indicated (*=p<0.05; **=p<0.01).
as §1, with “Western blotting of hGAA was performed essentially as described (Amalfitano et al., Proc. Natl. Acad. Sci. USA, 1999, 96: 8861-8866) using the hGAA monoclonal antibody (courtesy of Genzyme Corp., Framingham, Mass.) and the CI-MPR antibody (catalog number GTX28093; Gene Tex, Irvine, Calif.).” left out

GAA-KO mice [4] = experiment: Weight gain, ERT plus clenbuterol; settings: ERT plus clenbuterol v. ERT alone; male mice; p<0.05 at weeks 1-3
Description: GAA-KO mice were administered four weekly doses of rhGAA (20 mg/kg), and treated with clenbuterol (n=5) or ERT alone (n=5). […] Mean+/−standard deviation are shown. Statistically significant differences indicated (*=p<0.05; **=p<0.01).
as §2

GAA-KO mice [5] = experiment: GAA activity in tissues, gene therapy plus clenbuterol
Description: FIG. 5A-5B depicts enhanced efficacy from liver-targeted gene therapy plus clenbuterol treatment. The GAA-KO mice were injected with AAV-LSPhGAA (2×10^10 vector particles/mouse) or uninjected (5 per group). Vector-treated mice were treated with AAV-LSPhGAA and clenbuterol or with AAV-LSPhGAA alone. Untreated (mock) GAA-KO mice were used as controls. Mice were euthanized for tissue analysis 4 weeks after vector injection. […] Statistically significant differences indicated (*=p<0.05; **=p<0.01).
as §1, with “Western blotting of hGAA was performed essentially as described (Amalfitano et al., Proc. Natl. Acad. Sci. USA, 1999, 96: 8861-8866) using the hGAA monoclonal antibody (courtesy of Genzyme Corp., Framingham, Mass.) and the CI-MPR antibody (catalog number GTX28093; Gene Tex, Irvine, Calif.).” left out

In the case of `CC(C)(C)NCC(O)c1cc(Cl)c(N)c(Cl)c1` (centres unmarked) [clenbuterol], the “glycogen content for quadriceps” value (GAA-KO mice [1]; ERT plus clenbuterol 1.3 μg/ml (Low) in drinking water) is reported as “significantly reduced”, the “glycogen content for quadriceps” value (GAA-KO mice [1]; ERT plus clenbuterol 6 μg/ml (Medium) in drinking water) is reported as “significantly reduced” and the Glycogen content (GAA-KO mice [1]; diaphragm, p=0.0002) is reported as “significantly reduced”. For the same molecule, the glycogen clearance (GAA-KO mice [1]; gastrocnemius, ERT plus clenbuterol) was “absence of increased glycogen clearance”, the Glycogen content (GAA-KO mice [1]; quadriceps, p=0.00002) was “significantly reduced” and the Glycogen content (GAA-KO mice [1]; tibialis anterior, p=0.002) was “significantly reduced”. The “weight of the gastrocnemius” value [2] was “increased”, the weight gain (GAA-KO mice [3]) was “trend toward greater weight gain” and the weight gain (GAA-KO mice [4]) was “increased weight gain”. For the same molecule, the GAA activity (GAA-KO mice [5]; heart, vector plus clenbuterol v. vector alone, p=0.03) was “significantly increased” and the GAA activity (GAA-KO mice [5]; skeletal muscles and the brain, clenbuterol administration with vector) was “significantly increased”.
